# Laboratory results taken from article PMC10564737, “Structure-based design of a phosphotyrosine-masked covalent ligand targeting the E3 ligase SOCS2” (Nature Communications, 2023).
# “And” between values parts separate entries of the source, which are not always exact repeats. Equal values may be shown once.
# Molecular target: T1, HiBiT-SOCS2 fusion in HeLa cells (Homo sapiens, UniProt O14508)
# T1 construct: encoding SOCS2 (32–198) in pBiT3.1-N expression vector; expressed in transfected cells; host or cells: HeLa
# Assay: Split-NanoLuc CETSA, live-cell mode
# Format: cell-based
# Parameters: Produrg CETSA screening, raw signal: reference not given here
# Conditions: for Produrg CETSA screening, raw signal: 50uM 20hrs; for Tagg shift, live-cell CETSA: HeLa cells; for Tagg shift, live-cell CETSA / ΔT: 50 μM, 20 h; for ΔT / ΔT, individual replicates n1-n3: Prodrug screen CETSA; for ΔT: live HeLa cells, Mean n = 3
# Method: One of the challenges with small-molecule binders displaying on-target activity with recombinant proteins, is to translate their utility to a cellular context. […] One of the advantages of CETSA is that target engagement can be monitored without the need for the development of a cell-permeable tracer molecule.
# We utilized CETSA in a live-cell mode to evaluate the efficacy and rank the different prodrugs. We treated live HeLa cells with 50 μM compound (prodrugs) for 20 h and monitored Tagg shift as a proxy for the combo of prodrug permeability and unmasking (Fig. 4d). […] The observation could be because the POM group unmasking requires only esterase unlike the reliance of compounds 21–23 on esterase and phosphoramidase for unmasking an aryloxy phosphoramidate group.
# N-terminal HiBiT-SOCS2 fusion was generated by encoding SOCS2 (32–198) in pBiT3.1-N expression vector (Promega). The transfection and target engagement assay were performed by modifying a NanoLuc target engagement protocol (Promega) with some small modifications. Briefly, HiBiT-SOCS2 fusion construct was transfected into HeLa cells using FuGENE HD (Promega) according to the manufacturer’s protocol. HiBiT-SOCS2 fusion construct was diluted into Transfection Carrier DNA (Promega) at a mass ratio of 1:100 or 1:10 for permeabilised and live-cell CETSA respectively. FuGENE HD was added at a ratio of 1:3 (μg DNA: μL FuGENE HD). 1 part (vol) of FuGENE HD complexes thus formed were combined with 20 parts (vol) of HeLa cells suspended at a density of 2 × 10^5 cells/mL, followed by incubation in a humidified, 37 °C + 5% CO2 incubator. After 20 h of incubation HeLa cells were detached and resuspended at a density of 2.5 × 10^5 cells/mL in Opti-MEM media without serum or phenol red but supplemented with protease inhibitor cocktail (Roche). Compounds stocks were added to cell suspension to maintain a final DMSO concentration of 1%. For the permeabilised assay format, 96-well PCR plates (Thermo) were pre-treated with digitonin to have a final well concentration of 50 μg/ml. 50 μl Opti-MEM cell suspension was then aliquoted to each well of the 96-well plate. The plates are then covered with microporous tape sheet (Qiagen) prior to incubation in a humidified, 37 °C + 5% CO2 incubator. Post-incubation we heat the PCR plates in 16-point temperature (split across two runs) curve spanning degrees 40-72 °C temperature span (CFX96 Touch Real-Time PCR Detection System, BioRad). The thermal cycler block was allowed to rise to the designated temperatures prior to placement of the PCR plates into the heating block and heat treatment for 3 min. After incubating the plates at room temperature for over 3 min, 50 μl of the Nano-Glo HiBiT Lytic mix (Promega) was added to each well. Samples were mixed by pipetting and placing the plate on an orbital shaker (600 rpm) for 5 min. 20 μl of the samples (in triplicates) were transferred to a AlphaPlate-384 plate (Perkin Elmer). Luminescence was recorded with GloMax Discover Microplate Reader (Promega). To generate apparent Tagg curves, the data is first converted to percent stabilized by relating the observed luminescence to the luminescence of the lowest temperature (40 °C) for that given sample. Data are then fitted to obtain apparent Tagg values using the Boltzmann Sigmoid equation using Graphpad Prism 9.
# [1] = n=1, temperature point 4 of 16, temperature not given
# [2] = n=1, temperature point 5 of 16, temperature not given
# [3] = n=1, temperature point 6 of 16, temperature not given
# [4] = n=1, temperature point 7 of 16, temperature not given
# [5] = n=1, temperature point 8 of 16, temperature not given
# [6] = n=1, temperature point 9 of 16, temperature not given
# [7] = n=1, temperature point 10 of 16, temperature not given
# [8] = n=1, temperature point 11 of 16, temperature not given
# [9] = n=1, temperature point 12 of 16, temperature not given
# [10] = n=1, temperature point 13 of 16, temperature not given
# [11] = n=1, temperature point 14 of 16, temperature not given
# [12] = n=1, temperature point 15 of 16, temperature not given
# [13] = n=1, temperature point 16 of 16, temperature not given
# [14] = n=2, temperature point 1 of 16, temperature not given
# [15] = n=2, temperature point 2 of 16, temperature not given
# [16] = n=2, temperature point 3 of 16, temperature not given
# [17] = n=2, temperature point 5 of 16, temperature not given
# [18] = n=2, temperature point 6 of 16, temperature not given
# [19] = n=2, temperature point 7 of 16, temperature not given
# [20] = n=2, temperature point 8 of 16, temperature not given
# [21] = n=2, temperature point 9 of 16, temperature not given
# [22] = n=2, temperature point 10 of 16, temperature not given
# [23] = n=2, temperature point 11 of 16, temperature not given
# [24] = n=2, temperature point 12 of 16, temperature not given
# [25] = n=2, temperature point 13 of 16, temperature not given
# [26] = n=2, temperature point 14 of 16, temperature not given
# [27] = n=2, temperature point 15 of 16, temperature not given
# [28] = n=2, temperature point 16 of 16, temperature not given
# T1 sequence (O14508 32-198): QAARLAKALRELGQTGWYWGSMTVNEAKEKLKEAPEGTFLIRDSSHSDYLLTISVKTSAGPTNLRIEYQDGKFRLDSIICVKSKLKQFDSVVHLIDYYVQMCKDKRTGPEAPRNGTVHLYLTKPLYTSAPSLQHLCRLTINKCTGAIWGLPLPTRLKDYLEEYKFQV
# T1 sequence (Q15370 whole entry, further chain, the tested form may be a part): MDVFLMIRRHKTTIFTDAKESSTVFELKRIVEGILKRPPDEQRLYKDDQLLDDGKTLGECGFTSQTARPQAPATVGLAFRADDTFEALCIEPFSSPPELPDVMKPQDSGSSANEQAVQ
# T1 sequence (Q15369 whole entry, further chain, the tested form may be a part): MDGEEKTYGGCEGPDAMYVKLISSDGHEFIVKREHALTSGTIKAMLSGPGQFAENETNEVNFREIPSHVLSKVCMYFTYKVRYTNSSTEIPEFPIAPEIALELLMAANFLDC
smiles,measurement,setting,value
O=C(CCl)Nc1cccc(CNC(=O)[C@H](Cc2ccc(OP(=O)(O)O)cc2)NC(=O)Cc2ccc(F)cc2)c1 [MN551],"Produrg CETSA screening, raw signal",[1],51906 and 74271 and 83631
same,"Produrg CETSA screening, raw signal",[2],62246 and 51464 and 85761
same,"Produrg CETSA screening, raw signal",[3],108788 and 87275 and 106856
same,"Produrg CETSA screening, raw signal",[4],132974 and 140531 and 140435
same,"Produrg CETSA screening, raw signal",[5],134181 and 150079 and 139460
same,"Produrg CETSA screening, raw signal",[6],189390 and 210146 and 247725
same,"Produrg CETSA screening, raw signal",[7],222849 and 214562 and 260657
same,"Produrg CETSA screening, raw signal",[8],306316 and 347377 and 363834
same,"Produrg CETSA screening, raw signal",[9],497790 and 541910 and 544913
same,"Produrg CETSA screening, raw signal",[10],482302 and 510836 and 519812
same,"Produrg CETSA screening, raw signal",[11],563762 and 585700 and 590798
same,"Produrg CETSA screening, raw signal",[12],665581 and 663053 and 701220
same,"Produrg CETSA screening, raw signal",[13],691060 and 708174 and 757604
same,"Produrg CETSA screening, raw signal",[14],29701 and 32684 and 58114
same,"Produrg CETSA screening, raw signal",[15],46564 and 62785 and 77591
same,"Produrg CETSA screening, raw signal",[16],123506 and 129184 and 115193
same,"Produrg CETSA screening, raw signal",[17],47087 and 55743 and 78578
same,"Produrg CETSA screening, raw signal",[18],98105 and 105595 and 117544
same,"Produrg CETSA screening, raw signal",[19],144950 and 158240 and 171572
same,"Produrg CETSA screening, raw signal",[20],135100 and 139766 and 168368
same,"Produrg CETSA screening, raw signal",[21],229091 and 227474 and 261588
same,"Produrg CETSA screening, raw signal",[22],267450 and 271378 and 303431
same,"Produrg CETSA screening, raw signal",[23],327561 and 343740 and 362839
same,"Produrg CETSA screening, raw signal",[24],483965 and 500271 and 541590
same,"Produrg CETSA screening, raw signal",[25],506853 and 509845 and 531489
same,"Produrg CETSA screening, raw signal",[26],591756 and 578279 and 588133
same,"Produrg CETSA screening, raw signal",[27],597206 and 580381 and 582472
same,"Produrg CETSA screening, raw signal",[28],620665 and 663583 and 665832
same,"Produrg CETSA screening, raw signal","n=3, Temp, 0C 59.2",55622
same,"Produrg CETSA screening, raw signal","n=3, Temp, 0C 62.3",33828 and 45066 and 46746
same,"Produrg CETSA screening, raw signal","n=3, Temp, 0C 66.1",15770 and 17572 and 22773
same,"Produrg CETSA screening, raw signal","n=3, Temp, 0C 69.3",14086 and 13763 and 18636
same,"Produrg CETSA screening, raw signal","n=3, Temp, 0C 71.1",13296 and 19284 and 20568
same,"Produrg CETSA screening, raw signal","n=3, Temp, 0C 72",12696 and 17884 and 19057
same,"Tagg shift, live-cell CETSA",,2 °C
same,ΔT,,1.99 oC
same,"ΔT, individual replicates n1-n3",single replicates,0.38 oC and 4.34 oC and 1.24 oC
CC(C)(C)C(=O)OCOP(=O)(OCOC(=O)C(C)(C)C)Oc1ccc(C[C@H](NC(=O)Cc2ccc(F)cc2)C(=O)NCc2cccc(NC(=O)CCl)c2)cc1 [MN714],"Produrg CETSA screening, raw signal",[1],54032 and 80376 and 105532
same,"Produrg CETSA screening, raw signal",[2],90582 and 99338 and 174703
same,"Produrg CETSA screening, raw signal",[3],139751 and 167289 and 205811
same,"Produrg CETSA screening, raw signal",[4],195985 and 234426 and 281536
same,"Produrg CETSA screening, raw signal",[5],244882 and 229067 and 241218
same,"Produrg CETSA screening, raw signal",[6],256289 and 277913 and 306068
same,"Produrg CETSA screening, raw signal",[7],320763 and 321677 and 363535
same,"Produrg CETSA screening, raw signal",[8],372242 and 395029 and 425781
same,"Produrg CETSA screening, raw signal",[9],423872 and 436050 and 431053
same,"Produrg CETSA screening, raw signal",[10],366601 and 377426 and 420904
same,"Produrg CETSA screening, raw signal",[11],362714 and 367767 and 404526
same,"Produrg CETSA screening, raw signal",[12],419874 and 426204 and 438598
same,"Produrg CETSA screening, raw signal",[13],418575 and 457050 and 469972
same,"Produrg CETSA screening, raw signal",[14],80745 and 156547 and 107330
same,"Produrg CETSA screening, raw signal",[15],108259 and 123901 and 132020
same,"Produrg CETSA screening, raw signal",[16],72847 and 107017 and 131297
same,"Produrg CETSA screening, raw signal","n=2, temperature point 4 of 16, temperature not given",98808 and 124869 and 145900
same,"Produrg CETSA screening, raw signal",[17],73033 and 127162 and 126167
same,"Produrg CETSA screening, raw signal",[18],163432 and 190209 and 191740
same,"Produrg CETSA screening, raw signal",[19],242162 and 237309 and 241895
same,"Produrg CETSA screening, raw signal",[20],244528 and 287537 and 296136
same,"Produrg CETSA screening, raw signal",[21],280328 and 320314 and 333974
same,"Produrg CETSA screening, raw signal",[22],308215 and 329369 and 371393
same,"Produrg CETSA screening, raw signal",[23],342961 and 395565 and 371949
same,"Produrg CETSA screening, raw signal",[24],424106 and 411160 and 460047
same,"Produrg CETSA screening, raw signal",[25],397001 and 430594 and 470735
same,"Produrg CETSA screening, raw signal",[26],424646 and 453700 and 455391
same,"Produrg CETSA screening, raw signal",[27],402201 and 445060 and 429166
same,"Produrg CETSA screening, raw signal",[28],423530 and 445088 and 469114
same,"Produrg CETSA screening, raw signal","n=3, Temp, 0C 62.3",15991
same,"Produrg CETSA screening, raw signal","n=3, Temp, 0C 66.1",13409 and 15862 and 18690
same,"Produrg CETSA screening, raw signal","n=3, Temp, 0C 69.3",10941 and 16787 and 17374
same,"Produrg CETSA screening, raw signal","n=3, Temp, 0C 71.1",8072 and 11559 and 15104
same,"Produrg CETSA screening, raw signal","n=3, Temp, 0C 72",10040 and 12206 and 15596
same,EC50,"2 hours EC50, MN714 dose response CETSA, Mean",3.77 µM
same,EC50,"2 hours EC50, individual replicates n1-n4, MN714 dose response CETSA, single replicates",2.69 µM and 3.55 µM and 5.05 µM
same,EC50,"8 hours EC50, MN714 dose response CETSA, Mean",2.52 µM
same,EC50,"8 hours EC50, individual replicates n1-n4, MN714 dose response CETSA, single replicates",1.93 µM and 3.11 µM and 0.902 µM and 4.13 µM
same,EC50,"EC50, live-cell CETSA, 2 h of treatment",3.8 µM
same,EC50,"EC50, live-cell CETSA, 8 h of treatment",2.5 µM
same,"Tagg shift, live-cell CETSA",,consistent superior SOCS2 engagement
same,ΔT,,4.89 oC
same,"ΔT, individual replicates n1-n3",single replicates,4.83 oC and 5.25 oC and 4.59 oC
